Measured values: ChEMBL document CHEMBL6153083, “Synthesis, Structural Modification, and Antismall Cell Lung Cancer Activity of 3-Arylisoquinolines with Dual Inhibitory Activity on Topoisomerase I and II” (J Med Chem, 2025)
Activity calls are given as the source filed them. No cut-off for these calls is given here.

How the values were obtained:
[1] = target: T1, DNA topoisomerase 1 (Homo sapiens) (UniProt P11387); assay: Inhibition of Topo I (unknown origin) relaxation activity using pBR322 plasmid DNA as substrate at 25 to 100 uM incubated for 30 mins; settings: dose 25-100 µM
T1 sequence (whole entry): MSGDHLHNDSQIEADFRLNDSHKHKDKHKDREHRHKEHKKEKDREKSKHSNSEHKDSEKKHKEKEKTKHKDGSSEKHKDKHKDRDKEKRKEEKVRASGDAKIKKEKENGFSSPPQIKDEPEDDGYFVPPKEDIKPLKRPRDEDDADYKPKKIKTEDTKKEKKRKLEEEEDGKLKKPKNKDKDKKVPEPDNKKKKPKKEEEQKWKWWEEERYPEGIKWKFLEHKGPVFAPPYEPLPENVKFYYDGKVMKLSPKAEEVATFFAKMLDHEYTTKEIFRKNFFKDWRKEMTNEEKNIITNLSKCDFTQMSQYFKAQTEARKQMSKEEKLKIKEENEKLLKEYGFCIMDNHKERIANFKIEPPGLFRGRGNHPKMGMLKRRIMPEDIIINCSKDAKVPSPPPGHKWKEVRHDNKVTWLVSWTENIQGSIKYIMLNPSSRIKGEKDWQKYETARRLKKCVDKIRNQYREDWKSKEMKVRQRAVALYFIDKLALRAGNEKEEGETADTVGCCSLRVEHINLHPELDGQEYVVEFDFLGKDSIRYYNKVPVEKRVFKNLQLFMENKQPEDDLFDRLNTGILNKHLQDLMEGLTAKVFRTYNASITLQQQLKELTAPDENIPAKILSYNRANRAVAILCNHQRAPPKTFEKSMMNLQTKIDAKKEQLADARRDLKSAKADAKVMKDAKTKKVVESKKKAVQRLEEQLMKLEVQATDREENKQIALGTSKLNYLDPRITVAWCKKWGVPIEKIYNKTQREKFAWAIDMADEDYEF

NCI-H209 = assay: Antiproliferative activity against human NCI-H209 cells incubated for 72 hrs; type: functional, cell-based; settings: NCI-H209, 72 h
SHP77 = assay: Antiproliferative activity against human SHP77 cells incubated for 72 hrs; type: functional, cell-based; settings: SHP77, 72 h
[2] = Antiproliferative activity against human BEAS-2B cells incubated for 72 hrs; type: toxicity, cell-based
NCI-H446 [3] = assay: Inhibition of cell proliferation in human NCI-H446 cells incubated for 24 hrs by EdU incorporation assay; type: functional, cell-based; settings: dose 0.375-3 µM
NCI-H446 [4] = assay: Inhibition of cell migration in human NCI-H446 cells incubated for 24 hrs by transwell assay; type: functional, cell-based; settings: dose 0.375-3 µM
NCI-H446 [5] = assay: Inhibition of cell migration in human NCI-H446 cells incubated for 24 hrs by wound-healing assay; type: functional, cell-based; settings: dose 0.375-3 µM
NCI-H1048 [6] = assay: Inhibition of cell migration in human NCI-H1048 cells incubated for 24 hrs by wound-healing assay; type: functional, cell-based; settings: dose 0.375-3 µM
NCI-H446 [7] = assay: Induction of cell cycle arrest in human NCI-H446 cells assessed as accumulation at S phase incubated for 48 hrs by PI staining based flow cytometry; type: functional; settings: dose 1-8 µM
NCI-H446 [8] = assay: Induction of apoptosis in human NCI-H446 cells assessed as reduction in cell viability incubated for 48 hrs by Geimsa staining based analysis; type: functional; settings: dose 1-8 µM
NCI-H446 [9] = assay: Induction of apoptosis in human NCI-H446 cells assessed as chromatin condensation at 1 to 8 uM incubated for 48 hrs by Geimsa staining based analysis; type: functional, cell-based; settings: dose 1-8 µM
NCI-H446 [10] = assay: Induction of early apoptosis in human NCI-H446 cells incubated for 48 hrs by Annexin V-FITC/PI staining based flow cytometry; type: functional, cell-based; settings: dose 1-8 µM
NCI-H1048 [11] = assay: Induction of early apoptosis in human NCI-H1048 cells incubated for 48 hrs by Annexin V-FITC/PI staining based flow cytometry; type: functional, cell-based; settings: dose 1-8 µM
NCI-H1048 [12] = assay: Induction of mitochondrial dysfunction in human NCI-H1048 cells assessed as increase in ROS level at 1 to 8 uM incubated for 48 hrs by DCFH-DA staining based flow cytometry; type: functional, cell-based; settings: dose 1-8 µM
NCI-H446 [13] = assay: Induction of mitochondrial membrane permeability in human NCI-H446 cells assessed as increase in cytochrome C release at 1 to 8 uM incubated for 48 hrs by Western blot analysis; type: functional, cell-based; settings: dose 1-8 µM
NCI-H1048 [14] = assay: Induction of mitochondrial membrane permeability in human NCI-H1048 cells assessed as increase in cytochrome C release at 1 to 8 uM incubated for 48 hrs by Western blot analysis; type: functional, cell-based; settings: dose 1-8 µM
[15] = Inhibition of PI3K/AKT/mTOR signalling pathway in human NCI-H1048 cells assessed as decrease in PI3K phosphorylation at 1 to 8 uM incubated for 48 hrs by Western blot analysis; type: cell-based; settings: dose 1-8 µM
[16] = Inhibition of PI3K/AKT/mTOR signalling pathway in human NCI-H1048 cells assessed as decrease in mTOR level at 1 to 8 uM incubated for 48 hrs by Western blot analysis; type: cell-based; settings: dose 1-8 µM
[17] = AUC (0 to infinity) in Sprague-Dawley rat at 10 mg/kg, ip measured after 24 hrs by LC-MS/MS analysis; type: ADME, organism-based; settings: in vivo
[18] = Acute toxicity in Kunming mouse assessed as lethal dose; settings: in vivo
NCI-H446 [19] = assay: Antitumor activity against human NCI-H446 cells xenografted in BALB/c nude mouse at 20 mg/kg, ip for 21 days relative to control; type: functional; settings: NCI-H446, 504 h, time 21 day, read-out: TGI
[20] = Toxicity in BALB/c nude mouse xenografted with human NCI-H446 cells assessed as deleterious effect in lungs at 10 to 20 mg/kg, ip for 21 days by H and E staining based analysis; type: organism-based; settings: in vivo, 504 h, dose 10-20 mg/kg, time 21 day
[21] = Toxicity in BALB/c nude mouse xenografted with human NCI-H446 cells assessed as deleterious effect in kidney at 10 to 20 mg/kg, ip for 21 days by H and E staining based analysis; type: organism-based; settings: in vivo, 504 h, dose 10-20 mg/kg, time 21 day
NCI-H446 [22] = assay: Induction of apoptosis in human NCI-H446 cells assessed as formation of cellular fragments at 1 to 8 uM incubated for 48 hrs by Annexin V-FITC/PI staining based flow cytometry; type: functional, cell-based; settings: dose 1-8 µM
NCI-H1048 [23] = assay: Induction of apoptosis in human NCI-H1048 cells at 1.75 to 14 uM incubated for 48 hrs by Annexin V-FITC/PI staining based flow cytometry; type: functional, cell-based; settings: dose 1.75-14 µM
NCI-H1048 [24] = assay: Induction of mitochondrial membrane permeability in human NCI-H1048 cells assessed as increase in cytochrome C release at 1.75 to 14 uM incubated for 48 hrs by Western blot analysis; type: functional, cell-based; settings: dose 1.75-14 µM
[25] = Inhibition of PI3K/AKT/mTOR signalling pathway in human NCI-H1048 cells assessed as decrease in PI3K phosphorylation at 1.75 to 14 uM incubated for 48 hrs by Western blot analysis; type: cell-based; settings: dose 1.75-14 µM
[26] = Inhibition of PI3K/AKT/mTOR signalling pathway in human NCI-H1048 cells assessed as decrease in AKT level at 1.75 to 14 uM incubated for 48 hrs by Western blot analysis; type: cell-based; settings: dose 1.75-14 µM
[27] = Inhibition of PI3K/AKT/mTOR signalling pathway in human NCI-H1048 cells assessed as decrease in mTOR level at 1.75 to 14 uM incubated for 48 hrs by Western blot analysis; type: cell-based; settings: dose 1.75-14 µM

Row | Compound | inhibition [1] | IC50 (NCI-H209) | IC50 (SHP77) | IC50 at 72 h [2] | inhibition (NCI-H446 [3]) | inhibition (NCI-H446 [4]) | inhibition (NCI-H446 [5]) | inhibition (NCI-H1048 [6]) | Activity (NCI-H446 [7]) | Activity (NCI-H446 [8]) | Activity (NCI-H446 [9]) | AUC(0-inf) [17] | LD50 [18] | inhibition in vivo at 20 mg/kg (NCI-H446 [19]) | Activity [20] | Activity [21] | other results
1 | CC1CC(C)CN(Cc2cc3c(cc2-c2cc4ccc5c(c4cn2)OCO5)OCO3)C1 (stereo not given) | Active | 36.8 µM | 7.92 µM | 27.5 µM | Dose-dependent-effect; Exhibited Similar Inhibitory Effect To That Of Etoposide At Same Concentration | Dose-dependent-effect; Displayed Stronger Inhibitory Effect Than Etoposide | Dose-dependent-effect; Exhibited Superior Inhibitory Effect Compared To Etoposide At Same Concentration | Dose-dependent-effect; Exhibited Superior Inhibitory Effect Compared To Etoposide At Same Concentration | Dose-dependent-effect | Dose-dependent-effect | Active | 741 ng·h/mL | 300 mg/kg | 82.2% | Non-toxic | Non-toxic | Activity (NCI-H446 [10]): Dose-dependent-effect; Exhibited Stronger Effect Than Etoposide; Activity (NCI-H1048 [11]): Dose-dependent-effect; Exhibited Stronger Effect Than Etoposide; Activity (NCI-H1048 [12]): Active; Activity (NCI-H446 [13]): Active; Activity (NCI-H1048 [14]): Active; inhibition [15]: Active; Pronounced Effect Was Observed In Human Nci-H1048 Cells Than In Human Nci-H446 Cells; inhibition [16]: Active
2 | CCC1CCCC(C)N1Cc1cc2c(cc1-c1cc3ccc4c(c3cn1)OCO4)OCO2 (stereo not given) | Active | 11.6 µM | 8.01 µM | > 100 µM | Dose-dependent-effect; Exhibited Similar Inhibitory Effect To That Of Etoposide At Same Concentration | Dose-dependent-effect | Dose-dependent-effect | Dose-dependent-effect | Dose-dependent-effect | Dose-dependent-effect | Active | 1210 ng·h/mL | 300 mg/kg | 85.5% | Non-toxic | Non-toxic | Activity (NCI-H446 [22]): Active; Activity Similar To Etoposide; Activity (NCI-H1048 [23]): Active; Less Effective Than Etoposide; Activity (NCI-H1048 [24]): Active; inhibition [25]: Active; inhibition [26]: Active; inhibition [27]: Active
